Laboratory results published in the supplement of paper PMC8024199.
± gives the standard deviation of the averaged measurements.

Assays:
Assay in all cases: drug sensitivity score (DSS) (DSS score); higher = more sensitive (stronger growth inhibition); extreme values may be limits of the assay
[1] = tested on: Ba/F3 P210-BCR-ABL1 RUNX1-/- (mouse)
Method in brief: (§1)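 A drug sensitivity score summarised each dose-response curve, with luminescence from CellTiter-Glo scaled between vehicle and positive-control wells. Values are the mean of two replicates. The cells were mouse Ba/F3 clones that were CRISPR/Cas9-edited at a target exon or were edited controls, exposed on pre-printed 384-well plates to a 528-compound library at five concentrations spanning a 10,000-fold range. Plates held 10,000 cells per well in RPMI with 10% FBS for 72 h at 37 °C and 5% CO2.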

[2] = tested on: Ba/F3 P210-BCR-ABL1 RUNX1-/mut (mouse)
Method in brief: as §1

[3] = tested on: Ba/F3 P210-BCR-ABL1 RUNX1wt/wt control (mouse)
Method in brief: as §1

SMILES | drug sensitivity score [1] | drug sensitivity score [2] | drug sensitivity score [3]
C[C@@H](Nc1cc(F)cc(F)c1)c1cc(C(=O)N(C)C)cc2c(=O)cc(N3CCOCC3)oc12 [AZD-8186] | 0 | 0.5 ± 0.71 | 0
COc1cc(Br)c(Nc2nc(-c3c(C)nc4ncccn34)cs2)c(Br)c1 [PTC-209] | 9.05 ± 2.6 | 7.8 ± 2.4 | 7.5 ± 0.14
Cc1cc(F)c(C(=O)Nc2cccc(-c3nncn3C(C)C)n2)cc1-n1cnc(C2CC2)c1 [Selonsertib] | 0 | 0 | 0
NS(=O)(=O)OC[C@@H]1C[C@@H](n2ccc3c(N[C@H]4CCc5ccccc54)ncnc32)C[C@@H]1O [Pevonedistat] | 16.1 ± 2.4 | 15.4 ± 2 | 7.65 ± 0.21
CC[C@H](Nc1ncnc2[nH]cnc12)c1nc2cccc(F)c2c(=O)n1-c1ccccc1 [Idelalisib] | 4.7 ± 2.5 | 2.3 ± 2.5 | 0
CN(C)C(=O)c1ccc(S(=O)(=O)c2ccc(NC(=O)[C@@](C)(O)C(F)(F)F)c(Cl)c2)cc1 [AZD7545] | 0.65 ± 0.071 | 0 | 0
CCCc1cc(C)[nH]c(=O)c1CNC(=O)c1cc(-c2ccnc(N3CCN(C)CC3)c2)cc2c1cnn2C(C)C [GSK343] | 0.75 ± 0.78 | 1.05 ± 1.5 | 0
CCN1CCN(c2ccc(Nc3cc(N(C)C(=O)Nc4c(Cl)c(OC)cc(OC)c4Cl)ncn3)cc2)CC1 [Infigratinib] | 0 | 0 | 0
CCCCOc1nc(N)c2c(n1)N(Cc1cccc(CN3CCCC3)c1)CC(=O)N2 [Vesatolimod] | 2.65 ± 3.8 | 3.25 ± 3.8 | 1.65 ± 0.35
CCN(CC)CCCC(C)Nc1ccnc2cc(Cl)ccc12 (stereo unspecified) [Chloroquine] | 13.2 ± 5.2 | 14.9 ± 5.6 | 5.8 ± 0.28
COc1ccc(CCc2nc3cc(-c4c(C)noc4C)ccc3n2C[C@H](C)N2CCOCC2)cc1Cl [SGC-CBP30] | 10.2 ± 2.8 | 12.7 ± 4.6 | 5.5 ± 0.28
C=CCN(/C=C1/C(=O)O[C@H](COC)[C@@]2(C)C1=C(O)C(=O)C1=C2[C@H](OC(C)=O)C[C@]2(C)C(=O)CC[C@@H]12)CC=C [Sonolisib] | 1.7 ± 1.1 | 0.7 ± 0.99 | 0
CN(C)C1CCN(C(=O)c2ccc(NC(=O)Nc3ccc(-c4nc(N5CCOCC5)nc(N5CCOCC5)n4)cc3)cc2)CC1 [Gedatolisib] | 13.6 ± 0.35 | 15.2 ± 0.92 | 4.55 ± 0.071
O=C(CCNC(=O)c1ccc(OC(F)(F)F)cc1)N[C@@H]1CCCc2ccccc21 [ML390] | 18.55 ± 0.071 | 19.6 ± 0.92 | 12.4 ± 0.49
Cc1sc2c(c1C)C(c1ccc(Cl)cc1)=N[C@@H](CC(=O)NCCCCNC(=O)COc1cccc3c1C(=O)N(C1CCC(=O)NC1=O)C3=O)c1nnc(C)n1-2 (stereo partly specified) [dBET1] | 18.8 ± 2.1 | 19.1 ± 5.4 | 11.3 ± 1.5
NCC(=O)Nc1ccc(-n2nc(C(F)(F)F)cc2-c2ccc3c(ccc4ccccc43)c2)cc1 | 0.6 ± 0.85 | 0 | 0
O=C(Nc1cccc(Nc2ncc(Br)c(NCCc3cnc[nH]3)n2)c1)N1CCCC1 [BX-912] | 8.9 ± 0.42 | 7.25 ± 1.1 | 1.85 ± 0.071
Cc1c(-c2ccc(N3CCc4cccc(C(=O)Nc5nc6ccccc6s5)c4C3)nc2C(=O)O)cnn1CC12CC3CC(CC(C3)C1)C2 | 0 | 0 | 0
COCC[n+]1c2c(n(Cc3cnccn3)c1C)C(=O)c1ccccc1C2=O [Sepantronium bromide] | 12.9 ± 1.5 | 17.1 ± 1.1 | 6.85 ± 0.49
NC(=O)/C(=C/n1cnc(-c2cc(C(F)(F)F)cc(C(F)(F)F)c2)n1)c1cncnc1 [Eltanexor] | 27.8 ± 0.14 | 27.2 ± 0.35 | 19.8 ± 0.99
COc1cc2nccc(Oc3ccc(NC(=O)Nc4cc(C)on4)c(Cl)c3)c2cc1OC [Tivozanib] | 22.8 ± 0.92 | 18.1 ± 0.92 | 14.45 ± 0.071
O=C(c1cccc(Cl)c1F)N1CCN(Cc2cccc(Nc3nccs3)n2)CC1 [MK-8745] | 4.7 ± 0.14 | 3.5 ± 0.99 | 0.85 ± 0.071
O=C1Cc2cc(C(=O)NC3C[C@H]4CC[C@@H](C3)N4S(=O)(=O)CC3CCN(CCCC(F)(F)F)CC3)c(Cl)cc2N1 (stereo partly specified) | 0 | 0.05 ± 0.071 | 1.35 ± 1.9
NC(=S)N/N=C/c1ncccc1N [Triapine] | 5.6 ± 0.28 | 5.05 ± 0.071 | 4.65 ± 0.071

SMILES | drug sensitivity score [1] | drug sensitivity score [2] | drug sensitivity score [3]
CC1(C)CC[C@]2(NC(=O)C(C)(F)F)CC[C@]3(C)[C@H](C(=O)C=C4[C@@]5(C)C=C(C#N)C(=O)C(C)(C)[C@@H]5CC[C@]43C)[C@@H]2C1 [Omaveloxolone] | 22.9 ± 0.28 | 22.4 ± 0.78 | 17.2 ± 0.14
COc1cc(OC)c(/C=C/S(=O)(=O)Cc2ccc(OC)c(NCC(=O)O)c2)c(OC)c1 [Rigosertib] | 26.8 ± 1.1 | 27.05 ± 0.071 | 15.6 ± 1.4
C[C@@H]1COC(Nc2ccc3ncnc(Nc4ccc(OCc5nccs5)c(Cl)c4)c3c2)=N1 [Varlitinib] | 1.35 ± 1.9 | 1.15 ± 1.6 | 0
Cc1ccc(C(=O)Nc2ccc(CN3CCN(C)CC3)c(C(F)(F)F)c2)cc1C#Cc1cnc2cccnn12 [Ponatinib] | 36.2 ± 2.4 | 31.6 ± 0.28 | 30.2 ± 0.57
N.N.[Cl][Pt][Cl] [Cisplatin] | 6.3 ± 1.4 | 7 ± 1.6 | 5.5 ± 0.14
Cc1cc(OCc2nnc(SC3CCCC3)n2-c2cccnc2)ccc1-c1ccc(S(C)(=O)=O)cc1 [NMS-873] | 16.3 ± 1.6 | 14.7 ± 1.1 | 22.2 ± 0.71
CC(C)C[C@@H](C(=O)N[C@H](C(=O)OC1CCCC1)c1ccccc1)[C@H](O)C(=O)NO [Tosedostat] | 11.4 ± 1.7 | 11.3 ± 4.3 | 1.85 ± 0.49
COc1cc2ncnc(Oc3cccc(NC(=O)Nc4cc(C(C)(C)C(F)(F)F)on4)c3)c2cc1OC | 15.8 ± 22 | 13.2 ± 19 | 21.6 ± 0.49
O=C(O)c1ccc2c(c1)nc(Nc1cccc(Cl)c1)c1ccncc12 [Silmitasertib] | 6.45 ± 0.071 | 7.25 ± 2 | 4.05 ± 0.21
Nc1ncnc2c1nc(Cl)n2[C@@H]1O[C@H](CO)[C@@H](O)[C@H]1O [8-chloro-adenosine] | 15.7 ± 1.1 | 13.8 ± 1.3 | 7.95 ± 0.21
Nc1cccc2c1C(=O)N(C1CCC(=O)NC1=O)C2=O (stereo unspecified) [Pomalidomide] | 0 | 0 | 0
Cn1cc(-c2cnn3c(N)c(Br)c([C@@H]4CCCNC4)nc23)cn1 [MK-8776] | 7.25 ± 0.64 | 5.25 ± 3.3 | 0
C=CC(=O)N1CC/C(=C\c2ccc(F)c([N+](=O)[O-])c2)C(=O)/C(=C/c2ccc(F)c([N+](=O)[O-])c2)C1 [VLX1570] | 23.1 ± 0.78 | 23.5 ± 4.7 | 15.8 ± 0.92
CN[C@@H](C)C(=O)N[C@H](C(=O)N1CCC[C@H]1c1nc(C(=O)c2ccc(F)cc2)cs1)C1CCCCC1 [NVP-LCL161] | 26.4 ± 4.4 | 7.6 ± 8.5 | 23.6 ± 2.8
Nc1nc(Nc2ccc3c(c2)CC[C@@H](N2CCCC2)CC3)nn1-c1cc2c(nn1)-c1ccccc1CCC2 [BGB324] | 7.3 ± 0.57 | 6.35 ± 1.2 | 5.65 ± 0.21
COc1cccc(-c2ccc(NC(=O)C3=C(C(=O)O)CCC3)c(F)c2)c1 [Vidofludimus] | 2.2 ± 2.8 | 2.4 ± 1.7 | 0
CC(C)c1cc(C(=O)N2Cc3ccc(CN4CCN(C)CC4)cc3C2)c(O)cc1O [Onalespib] | 19.1 ± 2.9 | 17.8 ± 1.1 | 14.6 ± 0.21
CNC(=O)c1cccc2cc(Oc3ccnc4cc(OCC5(N)CC5)c(OC)cc34)ccc12 [Lucitanib] | 3.1 ± 1.1 | 2.95 ± 1.1 | 0.05 ± 0.071
O[C@H]1CC[C@H](Nc2ncc3nc(Nc4c(F)cc(F)cc4F)n([C@H]4CCOC4)c3n2)CC1 [Tanzisertib] | 1.55 ± 0.78 | 1 ± 1.4 | 0
C[C@@H](Oc1ccc2[nH]nc(/C=C/c3cnn(CCO)c3)c2c1)c1c(Cl)cncc1Cl | 14.5 ± 3.5 | 8.95 ± 1.5 | 6.65 ± 0.21
CN(C)Cc1c(C(=O)NCCOc2ccc(C(=O)NO)cc2)oc2ccccc12 [Abexinostat] | 24.4 ± 1.3 | 23.2 ± 2.4 | 18.7 ± 0.28
Cc1cnc(-c2ccccc2C(C)C)nc1NCc1ccc(-n2ccnn2)cc1 [ML323] | 4.4 ± 1.6 | 3.35 ± 2.9 | 1.25 ± 0.071
COc1cc(C)[nH]c(=O)c1CNC(=O)c1c(C)n([C@H](C)C2CCOCC2)c2ccccc12 [CPI-360] | 0 | 0 | 0
